Results reported in PMC5072737, “Heterologous Expression and Delivery of Biologically Active Exendin-4 by Lactobacillus paracasei L14” (PLoS ONE, 2016).

How the values were obtained:
[1] = test system: INS-1 cells; assay: Staurosporine-induced apoptosis assay (Annexin V-PI, flow cytometry) in INS-1 cells; assay type: cell-based, rat; conditions: pretreatment with the agent (none for staurosporine alone), then staurosporine 1 μmol/l for 1 h, n = 3
Protocol: INS-1 cells were seeded in 96-well plates at a density of 2 × 10^4 cells per well. After 36 h incubation, the cells were grown to nearly 60% confluence and the medium was replaced with RPMI 1640–exendin-4 medium diluted 1:1 (v/v) with fresh RPMI 1640 containing 10% FBS (100 μl per well). Standard GLP-1 in RPMI 1640 medium (100 nmol/l) was used as a positive control and pure RPMI 1640 medium was used as a blank control. The mixture was incubated for 24 h. The PI3K (phosphatidylinositol-3-kinase) antagonist treatment cells were preincubated with wortmannin (100 nmol/l) for 15 min before the treatment. The number of viable cells was then analyzed by cell counting kit-8 (CCK-8) assay (Biyuntian Biotech Co. Ltd.) based on the formation of formazan with sensitive changes in OD450 values. […] The absorbance was read at 450 nm using a Multiskan MK3 ELISA plate reader to determine the in vitro cell proliferation. For apoptosis assays, staurosporine (1 μmol/l) was added in all treatment groups for 1 h, after which the cells were treated with Annexin V-PI (propidium iodide) cell apoptosis kit (Biyuntian Biotech Co. Ltd.) and apoptosis was measured by flow cytometry using a FACScan (Becton Dickinson).

[2] = test system: INS-1 cells; assay: Insulin secretion assay in INS-1 cells; assay type: cell-based, rat; conditions: 5 mM glucose
Protocol: (§1) INS-1 cells were seeded in 24-well plates at a density of 10^5 cells per well and grown to 100% confluence before the assay. The medium was changed 24 h before the assay. For the assay, cells were quickly rinsed in 1 ml Hank's balanced salt solution (HBSS) with 3 mM glucose followed by a 2 h preincubation with 1 ml of the same buffer. […] At the end of the incubation, supernatant was collected and centrifuged for 10 min at 4000 × g at 4°C and insulin concentration was determined by ELISA kit (Millipore, St. Charles, MO, USA). The cells were collected to analyze mRNA expression of pancreatic duodenal homeobox-1 (PDX-1) and insulin gene (Insulin).

[3] = test system: PDX-1; assay: qRT-PCR of PDX-1 mRNA expression in INS-1 cells; assay type: cell-based, Rattus norvegicus; conditions: INS-1 cells treated 2 h, ΔΔCT, β-actin reference, n = 3
Protocol: as §1, with “buffer. Then the buffer was discarded, RPMI 1640–exendin-4 medium diluted 1:1 (v/v) with fresh medium plus 5 mM glucose (600 μl per well) were added, and the mixture was incubated for 2 h. Standard GLP-1 (100 nmol/l) in RPMI 1640 medium was used as a positive control.” for “buffer.”
(§2) Total RNA was isolated from INS-1 cells using TRIzol Reagent (Invitrogen). Reverse transcription was performed using PrimeScript II first-strand cDNA synthesis kit (Takara, China), containing 1 μg of total RNA as the template. qRT-PCR was carried out using a SYBR Green assay kit (Tiangen). Specific primers for PDX-1, Insulin and the internal control gene β-actin (Actb) from Rattus norvegicus were designed with Primer Premier 5 software (Table 2). […]

[4] = test system: Insulin (Ins1 and Ins2); assay: qRT-PCR of insulin gene mRNA expression in INS-1 cells; assay type: cell-based, Rattus norvegicus; conditions: INS-1 cells treated 2 h, ΔΔCT, β-actin reference, n = 3
Protocol: as §1, with “buffer. Then the buffer was discarded, RPMI 1640–exendin-4 medium diluted 1:1 (v/v) with fresh medium plus 5 mM glucose (600 μl per well) were added, and the mixture was incubated for 2 h. Standard GLP-1 (100 nmol/l) in RPMI 1640 medium was used as a positive control.” for “buffer.”
as §2

[5] = native GLP-1, rapid inactivation by DPP-IV; cited from earlier work
Excerpt: Glucagon-like peptide-1 (GLP-1) is a potent incretin produced by L-cells of the distal ileum and colon in response to nutrient intake. It has a variety of antidiabetic effects that are mediated through β-cells in pancreatic islets and peripheral tissues. These include not only the promotion of glucose-dependent insulin secretion and inhibition of glucagon secretion, but also inhibition of food intake and body weight gain by delaying gastric emptying, increasing β-cell mass, and enhancing insulin sensitivity. However, despite its favorable antidiabet ...

[6] = test system: Caco-2 cell monolayer; assay: Transport of exendin-4 through Caco-2 monolayer; assay type: in vitro ADME; conditions: Caco-2 monolayer (~21 days, transwell 0.4 μm, 4.67 cm^2), apical to basolateral, s-DMEM without antibiotics, 37°C; first 3 h; ELISA; mean ± SD, n = 3
Protocol: Caco-2 cells (10–20 passages) were cultivated in 25-cm^2 flasks in DMEM supplemented with 10% (v/v) FBS, 1% (v/v) non-essential amino acids and 100 IU/ml penicillin–100μg/ml streptomycin (s-DMEM) at 37°C in an atmosphere of 5% CO2 and high humidity. Upon 80% confluence, cells were harvested using 0.25% trypsin EDTA and seeded on the polyester inserts (0.4 μm pore size, 24 mm diameter, 4.67 cm^2 grown surface, Costar, Corning, NY) in 6-well transwell plates at a density of 10^5 cell/cm^2 and incubated under normal cell culture conditions. The culture medium was replaced every other day for the first week and then every day until it was ready for transport studies when the monolayer became confluent and the transepithelial electrical resistance (TEER) reading reached a plateau (about 21 days). The TEER was monitored according to the method described by Hubatsch et al.
After the Caco-2 monolayer cell became confluent, the culture medium was washed twice by PBS (pH 7.4). […] Caco-2 cell viability was then measured by trypan blue assay at 0, 2, 4 and 6 h after the addition of L14/pMG76e-exendin-4 cells. […] At predetermined time points, 100 and 200 μl supernatant samples were withdrawn from the apical and basolateral sides, respectively, for exendin-4 quantification by ELISA and replaced with an equal volume of s-DMEM without the antibiotics. […]

| Compound | Number of earliest-stage apoptotic cells, % of the control with no staurosporine [1] [%] | Insulin secretion, higher than the blank control (RPMI 1640 only) ([2]; 2 h, blank control 66.5 ± 0.5 ng/ml) [%] | Insulin secretion (insulin concentration in supernatant) ([2]; 2 h incubation, conditioned medium diluted 1:1 with fresh medium, GLP-1 at 100 nmol/l, insulin ELISA, mean ± SD, n = 3) [ng/mL] | PDX-1 mRNA expression, fold of the blank control [3] [fold] | Insulin mRNA expression, fold of the blank control [4] [fold] | Half-life in vivo [5] [min] | Exendin-4 transport rate through the cell monolayer [6] [pMol cm^-2 h^-1] |
| --- | --- | --- | --- | --- | --- | --- | --- |
| CN[C@@H]1C[C@H]2O[C@@](C)([C@@H]1OC)n1c3ccccc3c3c4c(c5c6ccccc6n2c5c31)C(=O)NC4 [staurosporine] | 264.3 |  |  |  |  |  |  |
| Glucagon-like peptide-1 [GLP-1] | 170 | 7 | 71.4 ± 0.7 | 1.9 | 1.7 | 1 to 2 |  |
| exendin-4 [standard exendin-4] |  |  |  |  |  |  | 0.15 ± 0.013 |
